Consider five compounds from ChEMBL document CHEMBL3046514, “Synthesis of novel cyclobutylphosphonic acids as inhibitors of imidazole glycerol phosphate dehydratase” (Tetrahedron, 1997).

The IC50 is the point on the concentration scale where inhibition reaches its midpoint. A high value points to weaker potency in that assay.

This assay is described as follows: Inhibition of purified Triticum aestivum (wheat) germ imidazole glycerol phosphate dehydratase.
`O=P(O)(O)[C@H]1C[C@@](O)(c2nc[nH]n2)C1` came in with a half-inhibitory concentration (IC50) of 270 µM.
Compound `O[C@@]1(c2nc[nH]n2)CCC[C@H](P(O)(O)=P)C1` returned an IC50 of 1.8 µM.
As to `O=P(O)(O)[C@@H]1CCC[C@](O)(c2nc[nH]n2)C1`, the 50% inhibitory concentration (IC50) is 0.018 µM.
In the case of `O=P(O)(O)[C@@H]1CCC[C@](O)(c2nc[nH]n2)C1` (relative stereo) it was 0.04 µM; in that of `O=P(O)(O)[C@@H]1CCC[C@@](O)(c2nc[nH]n2)C1` (relative stereo), 10 µM.
